In PMC6332036, “The Guareschi Pyridine Scaffold as a Valuable Platform for the Identification of Selective PI3K Inhibitors” (Molecules, 2015):

Columns and labels:
[1] = biological target: T1, PI3Kα (Homo sapiens, UniProt P42336); assay: ADP-Glo luminescent lipid kinase assay, PI3Kα; format: biochemical; conditions: recombinant enzyme 30 ng, 10 μM ATP, 30 min, room temperature; standard error (SE)
T1 construct: purchased JenaBioscience PR-335
Procedure: (§1) All the synthesized compounds were then tested in vitro for their ability to inhibit the kinase activity of the PI3Kα, PI3Kβ, PI3Kγ, and PI3Kδ isoforms in a luminescent kinase assay (ADP-GloTM kinase assay) using purified, recombinant human enzymes and ATP. IC50 values were subsequently determined.
(§2) To evaluate the ability of each compound of formula (9a–h) to inhibit the lipid kinase activity of each PI3K isoform, 30 ng of PI3Kα, β, γ, and δ recombinant protein (purchased from JenaBioscience—Jena, Germany; PI3Kα #PR-335, PI3Kβ #PR-344, PI3Kγ #PR-343, PI3Kδ #PR-345) were incubated with at least five different concentrations (from 0.016 to 10 µM) of the compounds (9a–h). The phosphorylation reaction was then started by adding 10 μM of ATP, and 10 µg of lipid micelles containing the appropriate substrate phosphatidylinositol and the phosphatidylserine.
(§3) After 30 min of incubation (1 h for PI3Kβ recombinant protein) at room temperature, the reaction was stopped, and the amount of ADP metabolite was measured with a luminescent kinase assay, ADP-GloTM Kinase Assay (purchased from Promega—USA #V9101). The luminescent signal positively correlated with the formed ADP and, therefore, with the kinase activity. The percentage of kinase activity was calculated over the control samples, containing only dimethyl sulfoxide (DMSO). To derive the IC50 values for each assayed compound (9a–h), all data were plotted on a dose response curve (Graph Pad Software) and the IC50 was calculated by using the nonlinear regression fit (equation (log agonist) vs. response—Sigmoidal dose response). The IC50 was representative of two different experiments performed in triplicate.

[2] = biological target: T2, PI3Kδ (Homo sapiens, UniProt O00329); assay: ADP-Glo luminescent lipid kinase assay, PI3Kδ; format: biochemical; conditions: recombinant enzyme 30 ng, 10 μM ATP, 30 min, room temperature; standard error (SE)
T2 construct: purchased JenaBioscience PR-345
Procedure: as §1, §2, §3

[3] = biological target: T3, PI3Kγ (Homo sapiens, UniProt P48736); assay: ADP-Glo luminescent lipid kinase assay, PI3Kγ; format: biochemical; conditions: recombinant enzyme 30 ng, 10 μM ATP, 30 min, room temperature; standard error (SE)
T3 construct: purchased JenaBioscience PR-343
Procedure: as §1, §2, §3

[4] = biological target: T4, PI3Kβ (Homo sapiens, UniProt P42338); assay: ADP-Glo luminescent lipid kinase assay, PI3Kβ; format: biochemical; conditions: recombinant enzyme 30 ng, 10 μM ATP, 1 h, room temperature; standard error (SE)
T4 construct: purchased JenaBioscience PR-344
Procedure: as §1, §2, §3

[5] = system: PI3Kα signaling pathway; assay: Cell-based assay: P-Akt in insulin-stimulated NIH3T3 cells (Western blot); conditions: Mus musculus, 1.5 h pre-treatment, 5 min stimulation with 1 μM insulin, SE ± 0.6, read-out: IC50, residual P-Akt
Procedure: Subsequently, compound 9b was analyzed on cell-based assay in order to evaluate its ability to inhibit the PI3Kα signaling pathway on cells. It is well established that insulin signaling is mostly regulated by PI3Kα [29]. The activated insulin receptor triggers PI3Kα activity mainly by binding and phosphorylating adaptor proteins of the IRS (insulin receptor substrate) family. Once activated, PI3Kα produces the PtdIns(3,4,5)P3 lipid product, which in turn mediates the activation of downstream effectors such as Akt. Thus, phosphorylation of Akt results as a key event of the PI3Kα activation. […] A dose response curve and an IC50 value were determined.
NIH3T3 cells were cultured in […] (DMEM) (GIBCO-Thermo Fisher Scientific Inc., Waltham, MA, USA) supplemented with 10% Fetal Bovine Serum (FBS) (GIBCO-Thermo Fisher Scientific Inc.), 100 units/mL penicillin (GIBCO-Thermo Fisher Scientific Inc.), and 100 μg/mL streptomycin (GIBCO- Thermo Fisher Scientific Inc.). […] The P-Akt production is detected by Western blot analysis and quantified with ChemiDoc™ XRS system. From the absolute values, a percentage of residual P-Akt is calculated for each inhibitor concentration by using the control vehicle as 100%. […]

T3 sequence (P48736 whole entry): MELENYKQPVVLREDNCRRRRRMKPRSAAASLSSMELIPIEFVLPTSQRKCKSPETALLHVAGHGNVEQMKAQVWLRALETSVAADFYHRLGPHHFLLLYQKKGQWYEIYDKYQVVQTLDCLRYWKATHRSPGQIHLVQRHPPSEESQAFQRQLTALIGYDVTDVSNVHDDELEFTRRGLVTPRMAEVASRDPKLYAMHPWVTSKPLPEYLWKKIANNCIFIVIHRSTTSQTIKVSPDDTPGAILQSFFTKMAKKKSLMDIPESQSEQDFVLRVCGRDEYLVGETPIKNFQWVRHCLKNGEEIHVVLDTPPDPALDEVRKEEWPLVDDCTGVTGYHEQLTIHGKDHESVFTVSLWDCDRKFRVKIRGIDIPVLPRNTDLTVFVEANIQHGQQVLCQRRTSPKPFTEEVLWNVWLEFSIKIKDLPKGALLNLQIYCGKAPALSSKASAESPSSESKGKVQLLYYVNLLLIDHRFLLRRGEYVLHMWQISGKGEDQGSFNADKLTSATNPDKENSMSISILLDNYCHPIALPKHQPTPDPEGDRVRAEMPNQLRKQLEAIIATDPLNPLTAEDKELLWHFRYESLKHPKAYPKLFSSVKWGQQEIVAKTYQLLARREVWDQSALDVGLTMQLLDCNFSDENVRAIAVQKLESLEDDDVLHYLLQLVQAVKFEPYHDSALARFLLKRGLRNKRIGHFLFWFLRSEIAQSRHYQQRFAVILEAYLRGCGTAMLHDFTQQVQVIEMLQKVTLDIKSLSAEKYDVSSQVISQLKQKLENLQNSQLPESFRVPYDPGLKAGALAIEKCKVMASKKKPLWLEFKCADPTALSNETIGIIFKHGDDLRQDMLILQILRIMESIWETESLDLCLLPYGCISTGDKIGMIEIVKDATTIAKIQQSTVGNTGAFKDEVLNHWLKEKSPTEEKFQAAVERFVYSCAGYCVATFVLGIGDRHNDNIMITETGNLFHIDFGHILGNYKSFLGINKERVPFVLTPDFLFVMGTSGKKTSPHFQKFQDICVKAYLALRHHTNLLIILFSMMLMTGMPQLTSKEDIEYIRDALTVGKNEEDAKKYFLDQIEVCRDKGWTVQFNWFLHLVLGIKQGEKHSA
T1 sequence (P42336 whole entry): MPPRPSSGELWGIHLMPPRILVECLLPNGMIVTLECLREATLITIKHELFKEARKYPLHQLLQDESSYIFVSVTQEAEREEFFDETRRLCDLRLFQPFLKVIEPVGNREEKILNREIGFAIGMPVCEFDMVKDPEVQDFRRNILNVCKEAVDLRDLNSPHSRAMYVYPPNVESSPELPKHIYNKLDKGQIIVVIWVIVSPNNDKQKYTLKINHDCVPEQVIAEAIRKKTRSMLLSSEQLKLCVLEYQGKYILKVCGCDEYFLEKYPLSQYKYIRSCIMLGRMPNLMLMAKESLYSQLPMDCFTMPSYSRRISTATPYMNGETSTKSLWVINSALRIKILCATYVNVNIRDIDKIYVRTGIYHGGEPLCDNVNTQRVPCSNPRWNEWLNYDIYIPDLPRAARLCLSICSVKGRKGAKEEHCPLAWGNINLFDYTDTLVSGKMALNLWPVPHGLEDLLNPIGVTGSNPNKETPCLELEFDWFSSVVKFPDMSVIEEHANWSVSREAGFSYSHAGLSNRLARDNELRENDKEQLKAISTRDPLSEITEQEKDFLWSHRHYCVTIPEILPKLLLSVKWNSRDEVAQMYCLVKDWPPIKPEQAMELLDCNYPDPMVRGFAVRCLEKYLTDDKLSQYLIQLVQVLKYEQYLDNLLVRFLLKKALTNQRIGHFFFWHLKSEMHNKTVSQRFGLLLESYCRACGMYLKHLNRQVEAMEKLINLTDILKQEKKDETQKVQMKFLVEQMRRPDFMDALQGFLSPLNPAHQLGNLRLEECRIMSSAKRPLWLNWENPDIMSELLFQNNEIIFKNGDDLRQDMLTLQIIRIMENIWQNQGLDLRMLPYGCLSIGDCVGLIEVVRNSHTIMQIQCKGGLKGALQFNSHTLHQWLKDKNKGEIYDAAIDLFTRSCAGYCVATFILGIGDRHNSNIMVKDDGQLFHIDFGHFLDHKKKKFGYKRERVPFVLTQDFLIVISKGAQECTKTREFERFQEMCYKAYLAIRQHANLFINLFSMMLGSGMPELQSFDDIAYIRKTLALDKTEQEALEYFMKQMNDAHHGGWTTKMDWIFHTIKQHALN
T1 sequence (P27986 whole entry partner): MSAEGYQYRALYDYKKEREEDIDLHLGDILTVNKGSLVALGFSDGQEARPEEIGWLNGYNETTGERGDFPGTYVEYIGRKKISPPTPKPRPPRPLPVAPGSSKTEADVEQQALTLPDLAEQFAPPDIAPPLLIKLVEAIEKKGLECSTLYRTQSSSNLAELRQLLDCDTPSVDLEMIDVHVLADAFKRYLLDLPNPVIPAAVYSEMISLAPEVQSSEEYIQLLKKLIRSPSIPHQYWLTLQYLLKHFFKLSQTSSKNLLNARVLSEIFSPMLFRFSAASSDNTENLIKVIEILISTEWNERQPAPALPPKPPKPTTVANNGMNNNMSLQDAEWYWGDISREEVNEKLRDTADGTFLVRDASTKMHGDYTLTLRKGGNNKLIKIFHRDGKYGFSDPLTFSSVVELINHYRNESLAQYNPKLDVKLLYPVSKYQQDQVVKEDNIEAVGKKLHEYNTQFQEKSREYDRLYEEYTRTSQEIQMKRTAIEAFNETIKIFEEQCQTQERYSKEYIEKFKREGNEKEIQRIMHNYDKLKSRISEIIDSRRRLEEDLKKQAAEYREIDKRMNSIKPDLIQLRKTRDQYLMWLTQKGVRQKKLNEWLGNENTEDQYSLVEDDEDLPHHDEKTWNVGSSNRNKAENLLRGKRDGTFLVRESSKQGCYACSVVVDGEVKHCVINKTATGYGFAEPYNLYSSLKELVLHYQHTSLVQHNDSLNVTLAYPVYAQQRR
T2 sequence (O00329 whole entry): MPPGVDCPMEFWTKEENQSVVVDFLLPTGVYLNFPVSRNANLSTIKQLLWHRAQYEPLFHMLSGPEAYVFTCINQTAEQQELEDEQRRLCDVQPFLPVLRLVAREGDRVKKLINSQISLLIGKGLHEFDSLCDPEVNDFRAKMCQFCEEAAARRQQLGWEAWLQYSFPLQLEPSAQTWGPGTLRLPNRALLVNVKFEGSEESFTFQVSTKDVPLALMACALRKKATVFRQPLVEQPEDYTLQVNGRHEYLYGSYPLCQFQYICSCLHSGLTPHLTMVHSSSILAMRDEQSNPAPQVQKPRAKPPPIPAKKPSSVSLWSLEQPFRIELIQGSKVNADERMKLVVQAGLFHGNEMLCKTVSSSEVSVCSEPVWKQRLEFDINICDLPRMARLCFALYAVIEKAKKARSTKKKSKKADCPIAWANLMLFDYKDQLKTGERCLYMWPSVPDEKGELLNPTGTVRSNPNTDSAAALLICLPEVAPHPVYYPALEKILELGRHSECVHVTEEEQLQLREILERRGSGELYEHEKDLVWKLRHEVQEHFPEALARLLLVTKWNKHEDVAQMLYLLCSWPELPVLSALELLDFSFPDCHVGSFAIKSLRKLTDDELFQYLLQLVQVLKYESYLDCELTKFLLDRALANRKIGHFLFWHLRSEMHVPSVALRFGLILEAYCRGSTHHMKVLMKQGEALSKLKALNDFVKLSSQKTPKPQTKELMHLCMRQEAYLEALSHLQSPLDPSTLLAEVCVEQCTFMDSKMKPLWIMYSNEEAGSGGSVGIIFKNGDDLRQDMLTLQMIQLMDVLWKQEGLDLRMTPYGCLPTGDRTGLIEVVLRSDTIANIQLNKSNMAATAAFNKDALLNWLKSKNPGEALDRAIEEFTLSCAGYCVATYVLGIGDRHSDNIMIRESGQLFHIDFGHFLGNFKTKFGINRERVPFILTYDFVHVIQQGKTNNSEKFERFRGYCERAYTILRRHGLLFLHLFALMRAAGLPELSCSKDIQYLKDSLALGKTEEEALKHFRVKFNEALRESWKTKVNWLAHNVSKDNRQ
T2 sequence (P27986 whole entry partner): as the sequence (P27986 whole entry partner) above
T4 sequence (P42338 whole entry): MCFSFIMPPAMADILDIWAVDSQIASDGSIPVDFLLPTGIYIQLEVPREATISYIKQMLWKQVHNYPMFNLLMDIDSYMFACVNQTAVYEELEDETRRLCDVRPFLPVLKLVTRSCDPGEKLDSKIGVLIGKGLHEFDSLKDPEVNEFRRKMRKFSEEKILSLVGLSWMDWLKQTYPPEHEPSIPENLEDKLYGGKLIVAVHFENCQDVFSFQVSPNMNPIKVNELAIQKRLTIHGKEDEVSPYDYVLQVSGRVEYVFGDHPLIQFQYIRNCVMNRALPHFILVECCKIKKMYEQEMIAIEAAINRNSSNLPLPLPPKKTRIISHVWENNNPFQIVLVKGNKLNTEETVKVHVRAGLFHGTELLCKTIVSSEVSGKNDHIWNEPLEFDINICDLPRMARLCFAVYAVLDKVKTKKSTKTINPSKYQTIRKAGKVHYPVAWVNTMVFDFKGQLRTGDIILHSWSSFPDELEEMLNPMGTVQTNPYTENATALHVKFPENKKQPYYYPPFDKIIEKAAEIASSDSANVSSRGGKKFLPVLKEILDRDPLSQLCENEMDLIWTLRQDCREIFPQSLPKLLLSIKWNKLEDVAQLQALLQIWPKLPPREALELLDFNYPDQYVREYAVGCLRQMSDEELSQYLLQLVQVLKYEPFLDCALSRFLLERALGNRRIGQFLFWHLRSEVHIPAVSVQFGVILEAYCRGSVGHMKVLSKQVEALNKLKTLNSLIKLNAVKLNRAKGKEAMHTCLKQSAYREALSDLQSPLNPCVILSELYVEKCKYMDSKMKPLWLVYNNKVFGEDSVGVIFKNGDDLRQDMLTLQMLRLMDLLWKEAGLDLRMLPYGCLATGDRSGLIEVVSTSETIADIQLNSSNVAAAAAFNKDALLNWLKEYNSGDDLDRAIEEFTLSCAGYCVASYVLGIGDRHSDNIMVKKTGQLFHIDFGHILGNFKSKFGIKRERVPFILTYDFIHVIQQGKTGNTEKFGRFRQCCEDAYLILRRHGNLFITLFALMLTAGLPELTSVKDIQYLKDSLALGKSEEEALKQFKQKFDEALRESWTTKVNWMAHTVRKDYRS
T4 sequence (P27986 whole entry partner): as the sequence (P27986 whole entry partner) above

melting point | IC50 [1] | IC50 [2] | IC50 [3] | IC50 [4] | IC50 [5] | Structure (SMILES)
216 to 217 °C | 1790 nM | 1370 nM | 2180 nM | > 10 µM |  | COc1ccc(-c2cc(N3CCOCC3)nc(-c3cccc(O)c3)c2C#N)cc1 [Compound 9c]
117 to 120 °C (dec.) | > 10000 nM | 1330 nM | 4430 nM | > 10 µM |  | Cc1ccc(-c2cc(N3CCOCC3)nc(-c3cccc(O)c3)c2C#N)cc1C [Compound 9f]
195 to 197 °C | 1180 nM | 420 nM | 1050 nM | 1.55 µM |  | Cc1cc(N2CCOCC2)nc(-c2cccc(O)c2)c1C#N [Compound 10, 2-(3-Hydroxyphenyl)-6-morpholino-4-methylnicotinonitrile]
142 to 144 °C | 830 nM | 900 nM | 2910 nM | 6.48 µM |  | COc1ccc(-c2cc(N3CCOCC3)nc(-c3cccc(O)c3)c2C#N)cc1OC [Compound 9e]
239 to 242 °C (dec.) | 980 nM | 710 nM | 2430 nM | > 10 µM |  | N#Cc1c(-c2cccnc2)cc(N2CCOCC2)nc1-c1cccc(O)c1 [Compound 9h]
221 to 223 °C (dec.) | 130 nM | 1220 nM | > 10000 nM | 1.99 µM |  | N#Cc1c(-c2ccccc2)cc(N2CCOCC2)nc1-c1cccc(O)c1 [Compound 9a]
208 to 209 °C (dec.) | 630 nM | 1090 nM | 1640 nM | 2.34 µM |  | COc1cccc(-c2cc(N3CCOCC3)nc(-c3cccc(O)c3)c2C#N)c1 [Compound 9d]
240 to 242 °C | 630 nM | > 10000 nM | > 10000 nM | > 10 µM | 2800 nM | N#Cc1c(-c2ccc(Oc3ccccc3)cc2)cc(N2CCOCC2)nc1-c1cccc(O)c1 [Compound 9b]
290 to 292 °C (dec.) | 1230 nM | 850 nM | 1560 nM | > 10 µM |  | N#Cc1c(-c2ccncc2)cc(N2CCOCC2)nc1-c1cccc(O)c1 [Compound 9g]
